Measurements as given in ChEMBL document CHEMBL5465560, “Selectivity Literature for EUbOPEN Chemogenomic Library” (2024).
Blank lines part the entries; values can stand above or below the compound they belong to.

How the values were obtained:
[1] = molecular target: Tyrosine-protein kinase Fes/Fps (Homo sapiens) (UniProt P07332); assay: Selectivity interaction (Kinase panel (Z-LYTE Assay)) EUB0001632a FES; conditions: at 10 µM
[2] = molecular target: Death-associated protein kinase 3 (Homo sapiens) (UniProt O43293); assay: Selectivity interaction (Kinase panel (Z-LYTE Assay)) EUB0001632a DAPK3; conditions: at 10 µM
[3] = molecular target: T1, SNF-related serine/threonine-protein kinase (Homo sapiens) (UniProt Q9NRH2); assay: Selectivity interaction (Ambit KINOMEscan and KiNATiv profiling in Jurkat cells) EUB0000090b SNRK; type: cell-based; conditions: at 1 µM
T1 sequence (whole entry): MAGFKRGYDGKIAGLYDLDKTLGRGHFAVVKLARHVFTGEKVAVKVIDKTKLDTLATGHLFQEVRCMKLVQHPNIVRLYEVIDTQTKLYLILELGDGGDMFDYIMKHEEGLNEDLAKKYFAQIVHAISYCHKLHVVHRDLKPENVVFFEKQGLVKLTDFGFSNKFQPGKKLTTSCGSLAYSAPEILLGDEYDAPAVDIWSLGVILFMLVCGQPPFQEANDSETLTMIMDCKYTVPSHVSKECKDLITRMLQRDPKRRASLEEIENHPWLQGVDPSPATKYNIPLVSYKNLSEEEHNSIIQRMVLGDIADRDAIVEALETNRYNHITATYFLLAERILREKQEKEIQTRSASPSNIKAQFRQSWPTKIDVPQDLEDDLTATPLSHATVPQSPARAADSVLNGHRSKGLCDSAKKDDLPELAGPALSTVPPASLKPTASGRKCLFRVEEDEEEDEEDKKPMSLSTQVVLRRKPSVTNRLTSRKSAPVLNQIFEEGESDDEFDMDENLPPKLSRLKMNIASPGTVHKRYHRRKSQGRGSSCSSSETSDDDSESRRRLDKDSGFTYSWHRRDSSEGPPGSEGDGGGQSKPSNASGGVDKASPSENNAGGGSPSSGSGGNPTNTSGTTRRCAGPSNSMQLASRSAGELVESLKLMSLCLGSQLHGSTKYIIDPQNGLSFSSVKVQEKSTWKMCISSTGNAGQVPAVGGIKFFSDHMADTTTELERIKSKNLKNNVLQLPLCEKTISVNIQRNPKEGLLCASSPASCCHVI

[4] = molecular target: T2, Dual specificity protein kinase TTK (Homo sapiens) (UniProt P33981); conditions: at 10 µM
T2 sequence (whole entry): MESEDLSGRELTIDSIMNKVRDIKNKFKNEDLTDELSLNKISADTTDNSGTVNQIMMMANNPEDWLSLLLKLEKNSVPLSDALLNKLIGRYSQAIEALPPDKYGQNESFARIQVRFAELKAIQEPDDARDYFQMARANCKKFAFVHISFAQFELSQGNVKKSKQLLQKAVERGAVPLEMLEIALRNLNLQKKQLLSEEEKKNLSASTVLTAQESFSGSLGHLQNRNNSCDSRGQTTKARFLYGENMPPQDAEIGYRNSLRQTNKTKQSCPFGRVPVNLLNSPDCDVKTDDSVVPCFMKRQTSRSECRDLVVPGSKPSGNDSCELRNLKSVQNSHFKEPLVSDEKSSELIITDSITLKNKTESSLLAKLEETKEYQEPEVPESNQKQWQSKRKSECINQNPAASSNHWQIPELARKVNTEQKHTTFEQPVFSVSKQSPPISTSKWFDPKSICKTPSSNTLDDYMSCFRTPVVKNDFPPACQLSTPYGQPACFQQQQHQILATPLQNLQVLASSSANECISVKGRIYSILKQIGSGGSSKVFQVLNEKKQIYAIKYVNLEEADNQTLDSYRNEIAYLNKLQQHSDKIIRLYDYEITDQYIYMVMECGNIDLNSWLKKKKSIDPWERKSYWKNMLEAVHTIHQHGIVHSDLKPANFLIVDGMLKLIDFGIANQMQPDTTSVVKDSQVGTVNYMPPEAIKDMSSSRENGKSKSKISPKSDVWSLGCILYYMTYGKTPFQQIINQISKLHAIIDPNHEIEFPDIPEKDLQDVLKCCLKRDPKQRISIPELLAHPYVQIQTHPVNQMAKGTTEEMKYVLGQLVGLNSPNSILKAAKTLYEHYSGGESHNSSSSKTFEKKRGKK

[5] = molecular target: T3, Serine/threonine-protein kinase TBK1 (Homo sapiens) (UniProt Q9UHD2); assay: Selectivity interaction (KinomeScan (DiscoverX)) EUB0001619a TBK1; conditions: at 1 µM
T3 sequence (whole entry): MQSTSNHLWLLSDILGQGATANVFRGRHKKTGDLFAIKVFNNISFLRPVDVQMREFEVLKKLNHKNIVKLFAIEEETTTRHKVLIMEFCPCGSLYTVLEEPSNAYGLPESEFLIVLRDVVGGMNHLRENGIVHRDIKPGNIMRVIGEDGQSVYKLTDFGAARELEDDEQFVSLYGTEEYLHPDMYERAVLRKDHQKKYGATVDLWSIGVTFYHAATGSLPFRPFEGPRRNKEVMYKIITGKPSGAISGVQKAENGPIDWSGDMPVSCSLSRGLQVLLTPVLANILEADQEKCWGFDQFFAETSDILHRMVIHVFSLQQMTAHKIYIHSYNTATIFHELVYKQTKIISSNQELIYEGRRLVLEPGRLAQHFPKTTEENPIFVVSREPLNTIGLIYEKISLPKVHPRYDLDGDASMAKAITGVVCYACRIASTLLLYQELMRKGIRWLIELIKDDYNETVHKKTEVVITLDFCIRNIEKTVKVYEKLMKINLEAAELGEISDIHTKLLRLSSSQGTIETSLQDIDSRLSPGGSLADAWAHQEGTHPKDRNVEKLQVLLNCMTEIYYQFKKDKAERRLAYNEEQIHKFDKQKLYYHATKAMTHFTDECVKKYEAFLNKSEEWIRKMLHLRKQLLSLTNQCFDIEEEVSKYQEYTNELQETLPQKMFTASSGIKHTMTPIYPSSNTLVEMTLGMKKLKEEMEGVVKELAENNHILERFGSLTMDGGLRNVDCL

Sequence of Death-associated protein kinase 3 (Homo sapiens) (O43293 whole entry, looked up): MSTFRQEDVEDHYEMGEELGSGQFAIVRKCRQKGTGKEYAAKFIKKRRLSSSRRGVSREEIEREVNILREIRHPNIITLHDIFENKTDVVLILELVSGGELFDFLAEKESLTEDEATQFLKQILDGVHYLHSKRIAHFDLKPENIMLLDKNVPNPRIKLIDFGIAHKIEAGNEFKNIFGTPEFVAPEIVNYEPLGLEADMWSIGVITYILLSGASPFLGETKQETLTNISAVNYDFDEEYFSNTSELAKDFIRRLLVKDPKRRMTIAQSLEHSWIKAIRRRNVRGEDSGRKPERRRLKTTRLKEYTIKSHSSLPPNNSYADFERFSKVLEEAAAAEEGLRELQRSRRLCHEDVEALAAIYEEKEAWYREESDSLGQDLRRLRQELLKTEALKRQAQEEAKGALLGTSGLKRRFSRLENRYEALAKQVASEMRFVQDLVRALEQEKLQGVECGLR
Sequence of Tyrosine-protein kinase Fes/Fps (Homo sapiens) (P07332 whole entry): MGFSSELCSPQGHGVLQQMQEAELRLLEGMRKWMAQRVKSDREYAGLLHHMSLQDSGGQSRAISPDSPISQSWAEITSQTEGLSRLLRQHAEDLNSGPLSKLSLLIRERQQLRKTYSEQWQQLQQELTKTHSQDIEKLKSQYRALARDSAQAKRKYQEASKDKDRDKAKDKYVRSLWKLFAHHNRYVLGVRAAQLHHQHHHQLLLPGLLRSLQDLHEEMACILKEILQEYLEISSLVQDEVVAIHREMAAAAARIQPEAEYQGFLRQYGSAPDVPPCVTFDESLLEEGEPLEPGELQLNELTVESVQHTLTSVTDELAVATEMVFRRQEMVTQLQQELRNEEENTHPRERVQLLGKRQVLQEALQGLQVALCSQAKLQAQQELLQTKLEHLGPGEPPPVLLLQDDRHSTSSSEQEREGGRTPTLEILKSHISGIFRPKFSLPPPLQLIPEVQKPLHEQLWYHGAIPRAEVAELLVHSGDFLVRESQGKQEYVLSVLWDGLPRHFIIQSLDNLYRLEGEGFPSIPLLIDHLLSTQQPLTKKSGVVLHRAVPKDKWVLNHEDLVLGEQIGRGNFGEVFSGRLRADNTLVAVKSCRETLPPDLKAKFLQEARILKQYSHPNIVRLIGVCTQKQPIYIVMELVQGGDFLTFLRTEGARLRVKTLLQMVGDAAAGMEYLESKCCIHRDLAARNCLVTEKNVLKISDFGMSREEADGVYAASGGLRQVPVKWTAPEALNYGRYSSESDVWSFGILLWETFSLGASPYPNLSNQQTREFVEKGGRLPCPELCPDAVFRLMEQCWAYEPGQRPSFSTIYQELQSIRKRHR

% of control [1]: 3.47%
Structure (SMILES): Cn1cc(-n2cnc3c(NCc4nc5cc(Cl)c(Cl)cc5[nH]4)nc(N4CCOCC4)nc32)cn1
% of control [2]: -3.73%

Structure (SMILES): CN(C)C/C=C/C(=O)Nc1ccc(C(=O)N2CCCC(Nc3ncc(Cl)c(-c4c[nH]c5ccccc45)n3)C2)cc1 (stereo not given)
% of control [3]: 93%

Structure (SMILES): Cc1cc([C@@H](C)Nc2ccccc2C(=O)O)c2nc(N3CCOCC3)cc(=O)n2c1 [AZD-6482]
% of control [4]: 100%

Structure (SMILES): N#Cc1cccc(-c2c[nH]c3ncnc(N4CCOCC4)c23)c1
% of control [5]: 100%
